# According to patent US20080221074A1, “Drug Screen and Treatment Method” (priority 2006, published 2008):
# What was measured:
# [1] = system: human T lymphocytes (PBMC); experiment: human mixed lymphocyte reaction (MLR); type: cell-based; conditions: 300 nM or 30 nM
# Source text: Human mixed lymphocyte reaction (MLR). The capacity of 3β,16α-dihydroxy-17-oxoandrostane, 3β,17β-dihydroxy-16-oxoandrostane, 17α-ethynylandrost-5-ene-3β,7β,17β-triol, and 17β-aminoandrost-5-ene-3β-ol to affect antigen specific stimulation in which human T lymphocytes respond to a specific foreign antigen (major histocompatibility complex).
# Blood samples were obtained from 3 (2 males, […]) fasting, healthy human volunteers of 23-31 years old. […] The subjects were bled between 9 and 10 AM to limit possible fluctuations in the circulating levels of hormones or cytokines that could have influenced the in vitro responses of their lymphocytes. Peripheral blood mononuclear cells (PBMC) were isolated by centrifugation on Ficoll-Hypaque (density 1.077, Biochrom AG, Berlin, Germany) gradients and resuspended in culture medium (RPMI 1640 supplemented with 2 mM L-glutamine, penicillin (100 U/mL) and streptomycin ([…]) (Invitrogen s.rl., Milan, Italy). Autologous (responder) inactivated plasma was used at 10%. Five hundred thousand responder PBMC (PBMCr) and 500,000 allogeneic irradiated (30 Gy) stimulator PBMC (PBMCs) were mixed at a ratio of 1:1 in 200 μL medium and cultured for 6 days in flat bottom 96 well plates (Nunc, Roskilde, Denmark) at a concentration of 300 nM or 30 nM for each of the 4 compounds. The compounds were dissolved in ethanol and then diluted to the desired concentration with culture medium leading to a final solution containing 0.01% of ethanol. This vehicle was used as control. Controls also included PBMCr and PBMCs cultured separately. During the last 8 hours of the culture period the PBMC were pulsed with […] [^3H] thymidine (Amersham, Milan, Italy). The cells were then harvested and radioactivity incorporation measured with a beta cell counter. The mean cpm of quadruplicate wells was calculated. Proliferation of T cells was expressed as a stimulation index: SI=cpm (PMBCs xPBMCr)/cpm (PBMCr)+cpm (PBMCs). Statistical analysis was performed using the Student's t test. The cpm obtained from quadruplicate of each test compound were compared to proliferative responses obtained in control PBMCr and PBMCs cultured in the presence of the vehicle. Differences were considered significant at p<0.05.
# [2] = system: progressive ischemia after thermal injury of the ear; experiment: thermal injury model using mouse ear tissue; type: in vivo, Balb/c mice; conditions: injection in propylene glycol after burn
# Protocol: A thermal injury model using mouse ear tissue was used to characterize compounds for their capacity to treat inflammation associated with thermal trauma. […] Groups of Balb/c mice, approximately nine weeks old were given an identifying mark and then divided into control and treated subgroups. The thickness of the ear to be immersed in hot water was recorded, and then the entire ear of the anesthetized mouse was dipped into 52° C. water for 24 seconds. Each mouse was returned to its cage after an injection of either the propylene glycol vehicle (control) or 100 mg of compound in propylene glycol. Ear swelling changes were monitored on individual mice at pre-burn, and at various times after thermal injury. Ear swelling changes were monitored on individual mice at pre-injury and at 1, 3, 6, 9,12, 18, 24 and 48 hours after thermal injury. Animals were treated with 100 mg of dehydroepiandrosterone (DHEA) dissolved in propylene glycol.
# EAE = experiment: experimental allergic encephalomyelitis (EAE), PLP 139-151; type: in vivo, female SJL/J mice; conditions: 5 mg/kg daily oral gavage; through day 26
# Source text: Treatment of autoimmune neurodegeneration. Three compounds, 17β-aminoandrost-5-ene-3β-ol, 17β-dimethylaminoandrost-5-ene-3β-ol and 17β-methylaminoandrost-5-ene-3β-ol were characterized for their capacity to ameliorate experimental allergic encephalomyelitis (EAE) in mice. This demyelinating condition is extensively used as a model for multiple sclerosis in humans and for testing of new therapies for treating multiple sclerosis, e.g., B. F. Bebo Jr. et al., J. Neurosci. Res. 52:420-426 1998; R. R. Voskuhl et al., Neuroscientist, 7:258-270 2001; H. Offner et al., J. Neuroimmunol., 130:128-139 2002.
# In this protocol, the compounds were administered to female SJL/J mice by oral gavage at the onset of disease symptoms. An antigen was used to initiate the EAE condition in the mice. […] Immunization with this peptide antigen initiates an autoimmune Thl mediated demyelinating disease of the central nervous system. The antigen was prepared by solid phase synthesis and purified by high-performance liquid chromatography. […] The immunization protocol was subcutaneous injection over four sites on the hind flank on day 0. After immunization. the mice were assessed daily for clinical signs of EAE using the following scale: 0=no clinical signs or symptoms; 1=limp tail; 2=mild hind limb weakness and limp tail; 3=moderate hind limb weakness and limp tail or mild ataxia; 4=severe hind limb weakness and mild forearm weakness with moderate ataxia; 5=paraplegia with no more than moderate forelimb weakness; 6=paraplegia with severe forelimb weakness or severe ataxia or moribund condition.
# Mice in the vehicle control group began to show observable symptoms of EAE at about 10-11 days after immunization with the PLP antigen, which is typical for the EAE disease model. The animals were dosed daily with 17β-aminoandrost-5-ene-3β-ol, 17β-dimethylaminoandrost-5-ene-3β-ol or 17β-methylaminoandrost-5-ene-3β-ol by oral gavage beginning at day 1, which was 1 day after immunization.
# NF-κB = experiment: inhibition of NF-κB activation in NF-κB-bla THP-1 cells after LPS stimulation; type: cell-based, human; conditions: Homo sapiens, THP-1
# Source text: Inhibition of NF-κB in vitro. […] Activation of NF-κB increases expression of a number of genes that mediate inflammation. This protocol used human THP-1 cells, which are human mononuclear blood cells with a monocyte phenotype. The cell line, referred to as NF-κB-bla THP-1, contained a β-lactamase reporter gene under the control of the NF-kB response element (Invitrogen, CellSensor™, product No. K1176). In this cell line, the β-lactamase reporter gene is stably integrated in the THP-1 cells. This cell line was used to detect agonists or antagonists of the NF-κB signaling pathway. These NF-κB-bla THP-1 cells respond to the presence of tumor necrosis factor alpha (TNFα) or bacterial lipopolysaccharide (LPS) by increased expression of the β-lactamase reporter gene. The level of β-lactamase enzyme activity was measured by fluorescence resonance energy transfer ratiometric detection. TNFα and LPS are both potent inflammation-inducing agents that activate NF-κB in THP1 cells. In this assay, compounds that decrease NF-κB activity, and thus β-lactamase, in the presence of TNFα or LPS are exerting an anti-inflammation activity.
# The NF-κB-bla THP-1 cells were maintained by passaging or feeding as needed. […] The cells were plated at 20,000 cells/well in a 384-well Black-wall, clear bottom assay plates (Costar#3712-TC low fluorescence background plates) approximately 24 hours before adding either TNFα at 10 ng/mL or LPS at 0.2 ng/mL to activate NF-κB.
# The assays were usually conducted 2-4 times for each compound and the values shown below are averages for each compound.
# [3] = system: ionizing radiation exposure; experiment: survival after lethal total body irradiation (10 Gy); type: in vivo, female B6D2F1 mice
# Protocol: Treatment of ionizing radiation exposure. The effect of selected F1Cs on survival of lethally-irradiated female B6D2F1 mice were compared to control animals treated with vehicle alone. […] For Group 4, test article was administered as a 50 μL volume, by intramuscular injection for three consecutive days. The formulation was a a suspension containing 0.1% w/v carboxymethyl-cellulose, 0.9% w/v sodium chloride and 0.05% v/v phenol. The formulations were agitated to uniformly resuspend the Fl C before syringing, and injected into animals within a few minutes of drawing into the syringe to prevent settling in the syringe.
# The groups of animals were treated as follows. […] The number of surviving animals is shown for day 6, 7, 12 and 21.
# [4] = system: insulin sensitivity in db/db diabetic mice; experiment: hyperinsulinemic-euglycemic clamp; type: in vivo; conditions: ^14C-2-deoxyglucose; p<0.05
# Protocol: Glucose lowering in 8 week old db/db diabetic mice. The hyperinsulinemic-euglycemic clamp protocol was conducted to measure insulin sensitivity in vivo. In this procedure, insulin was administered to raise the insulin concentration while glucose was infused to maintain euglycemia or a fixed, normal blood glucose level (about 180 mg/dL). […] The objective of this protocol was to investigate characterize the capacity of 17α-ethynylandrost-5-ene-3β,7β,17β-triol and androst-5-ene-3β,7β,16α,17β-tetrol to ameliorate systemic insulin resistance and improve whole body glucose disposal in the hyperinsulinemic-euglycemic clamp model. The degree of skeletal muscle and hepatic insulin sensitivity and tissue specific glucose uptake were also assessed. The animals were dosed daily by oral gavage for 14 days. On Day 10 of treatment catheters were implanted in the carotid artery and jugular vein. On the day of the clamp (day 14) the compound was administered at 7:30 am.
# Body weight and glucose concentration were assessed on day 0, 7 and day 14 of treatment. On day 14 a euglycemic hyperinsulinemic clamp was performed. Food was removed at 7:30 am at 10:30 a primed continuous infusion of [3-^3H]-glucose (0.05 μCi/min). A baseline blood sample was taken at 12:50 (−10 min) and at 1:00 (0 min) a euglycemic hyperinsulinemic clamp was initiated by administering 10 mU /kg/min of insulin. Glucose was infused at a variable rate to clamp the glucose concentration at ˜180 mg/dl. A bolus of [^14C]-2deoxyglucose was given at the end of the study to assess tissue specific glucose uptake. Plasma ^14C 2-deoxyglucose was assessed at 122, 125, 130, 135, 145 min. […]
# Analysis was conducted as follows. Plasma samples were deproteinized with Ba(OH)2 (0.3 N) and ZnSO4 (0.3 N), dried and radioactivity was assessed on scintillation counter (Packard TRICARB 2900 TR, Meriden, Conn.). […] One supernatant was directly counted to determine radioactivity from both [14C] […] A second aliquot was treated with Ba(OH)2 and ZnSO4 to remove ^14C DGP and any tracer incorporated into glycogen and then counted to determine radioactivity from free [^14C]DG(2). [^14C]DGP was calculated as the difference between the two aliquots. […] Rg, an index of tissue specific glucose uptake was calculated as previously described (E.W. Kraegen et al., Am. J. Physiol., 248:E353-E362, 1985). Whole body glucose turnover was calculated as the ratio of the ^3H glucose infusion rate (dpm/kg/min) and arterial plasma glucose specific activity (dpm/mg). Endogenous glucose production was calculated as the difference between the whole body glucose turnover and the exogenous glucose infusion rate (R. N. Bergman et al., Endocr. Rev., 6:45-86, 1985).
structure (smiles),measurement,setting,value
"C[C@]12CC[C@H]3[C@@H](CCC4C[C@@H](O)CC[C@@]43C)[C@@H]1CC(=O)[C@@H]2O (stereo partly drawn) [3β,17β-dihydroxy-16-oxoandrostane]",immune suppression (inhibition of the MLR),[1],not appreciably immune suppressive
C[C@]12CC[C@H](O)CC1=CC[C@@H]1[C@@H]2CC[C@]2(C)C(=O)[C@H](Br)C[C@@H]12 [16α-bromodehydroepiandrosterone],protection against progressive ischemia after thermal injury to the ear,[2],protected treated animals against much of the ischemic consequences
C[C@]12CC[C@H](O)CC1=CC[C@@H]1[C@@H]2CC[C@]2(C)C(=O)[C@H](Cl)C[C@@H]12 [16α-chlorodehydroepiandrosterone],protection against progressive ischemia after thermal injury to the ear,[2],only slightly protective
C[C@]12CC[C@H](O)CC1=CC[C@@H]1[C@@H]2CC[C@]2(C)C(=O)[C@H](O)C[C@@H]12 [16α-hydroxydehydroepiandrosterone],protection against progressive ischemia after thermal injury to the ear,[2],less protective
CN(C)[C@H]1CC[C@H]2[C@@H]3CC=C4C[C@@H](O)CC[C@]4(C)[C@H]3CC[C@]12C [17β-dimethylaminoandrost-5-ene-3β-ol],clinical severity of EAE symptoms,EAE,reduced the clinical severity
CN[C@H]1CC[C@H]2[C@@H]3CC=C4C[C@@H](O)CC[C@]4(C)[C@H]3CC[C@]12C [17β-methylaminoandrost-5-ene-3β-ol],clinical severity of EAE symptoms,EAE,reduced the clinical severity
"C[C@]12CC[C@H]3[C@@H](CC=C4C[C@@H](O)CC[C@@]43C)[C@@H]1CC[C@@H]2O [androst-5-ene-3β,17β-diol]",IC50,NF-κB,0.014 nM
same,number of surviving animals (groups of 12),"[3]; 0.6 mg i.m. daily for 3 days, day 6",12
same,number of surviving animals (groups of 12),"[3]; 0.6 mg i.m. daily for 3 days, day 7",12
same,number of surviving animals (groups of 12),"[3]; 0.6 mg i.m. daily for 3 days, day 12",11
same,number of surviving animals (groups of 12),"[3]; 0.6 mg i.m. daily for 3 days, day 21",9
same,number of surviving animals (groups of 12),"[3]; 0.6 mg s.c. daily for 3 days, day 6",12
same,number of surviving animals (groups of 12),"[3]; 0.6 mg s.c. daily for 3 days, day 7",11
same,number of surviving animals (groups of 12),"[3]; 0.6 mg s.c. daily for 3 days, day 12",10
same,number of surviving animals (groups of 12),"[3]; 0.6 mg s.c. daily for 3 days, day 21",7
same,number of surviving animals (groups of 12),"[3]; 3.0 mg s.c. daily for 3 days, day 6",12
same,number of surviving animals (groups of 12),"[3]; 3.0 mg s.c. daily for 3 days, day 7",12
same,number of surviving animals (groups of 12),"[3]; 3.0 mg s.c. daily for 3 days, day 12",9
same,number of surviving animals (groups of 12),"[3]; 3.0 mg s.c. daily for 3 days, day 21",7
same,protection against progressive ischemia after thermal injury to the ear,[2],protected treated animals against much of the ischemic consequences
"CN(CCOc1ccc(CC2SC(=O)NC2=O)cc1)c1ccccn1.O=C(O)/C=C\C(=O)O (stereo not drawn) [rosiglitazone, rosiglitazone maleate, reference compound]",glucose uptake in the gastrocnemius muscle,[4],more effective
